Laboratory results: paper PMC7955114, “Discovery of fungal surface NADases predominantly present in pathogenic species” (Nature Communications, 2021)

Tests used:
AfNADase [1] = target: T1, AfNADase (Aspergillus fumigatus, UniProt Q4WL81); experiment: X-ray structure, crystals soaked with NAD+; type: binding; conditions: active site of molecule A, EGTA-treated protein, Ca2+ absent, formed from 10 mM NAD+ soak
T1 construct: gene nadA; N-glycosylated at N45, N95, N118; about 30 kDa; homodimer; thumb 20-117, TNT palm domain 117-234; mutants also in 293 cells (C-terminal His6)

NcNADase = target: T2, NcNADase (Neurospora crassa, UniProt Q7S936); experiment: HPLC cleavage assay; type: biochemical; conditions: 200 µM substrate, 50 mM Tris-HCl pH 8.0, 0.5 mM CaCl2, 150 mM NaCl, 20 °C (conditions described for AfNADase)
T2 construct: gene NCU07948; secreted from transiently transfected 293 cells, codon-optimized, in pCMV-Flag5a (Flag tag), anti-FLAG purified, N-glycosylated

[2] = test system: NC(=O)c1ccc[n+]([C@@H]2O[C@H](COP(=O)(O)OP(=O)(O)OC[C@H]3O[C@@H](n4cnc5c(N)ncnc54)[C@H](O)[C@@H]3O)[C@@H](O)[C@H]2O)c1; experiment: purified protein; conditions: 500 µM substrate, 0.2 nM enzyme, 25 mM sodium phosphate pH 5.8, 50 mM NaCl, 5 % D2O, 23 °C
[3] = test system: NC(=O)c1ccc[n+]([C@@H]2O[C@H](COP(=O)(O)OP(=O)(O)OC[C@H]3O[C@@H](n4cnc5c(N)ncnc54)[C@H](OP(=O)(O)O)[C@@H]3O)[C@@H](O)[C@H]2O)c1; experiment: purified protein; conditions: 500 µM substrate, 0.2 nM enzyme, 25 mM sodium phosphate pH 5.8, 50 mM NaCl, 5 % D2O, 23 °C
AfNADase [4] = target: T1, AfNADase; experiment: X-ray co-crystal structure; type: binding; conditions: non-hydrolysable substrate analogue, active site of molecule B; 5 mM BAD co-crystallized, 0.1 M sodium acetate pH 5, CaCl2
[5] = target: the molecule itself; experiment: SEC; purified recombinant AfNADase; conditions of the analysis not told in the text (Supplementary Fig. 2C-F)

T2 sequence (Q7S936 20-243): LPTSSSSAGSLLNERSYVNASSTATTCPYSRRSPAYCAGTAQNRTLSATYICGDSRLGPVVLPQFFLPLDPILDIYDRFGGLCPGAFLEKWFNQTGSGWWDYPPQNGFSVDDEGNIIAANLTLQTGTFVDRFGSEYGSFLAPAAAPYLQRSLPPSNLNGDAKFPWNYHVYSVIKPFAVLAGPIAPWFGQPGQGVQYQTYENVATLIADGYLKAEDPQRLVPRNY

Nc1ncnc2c1ncn2[C@@H]1O[C@H](COP(=O)(O)OP(=O)(O)OC[C@H]2OC(O)[C@H](O)[C@@H]2O)[C@@H](O)[C@H]1O (some centres unmarked) [ADPR]
X-ray structure, crystals soaked with NAD+ (AfNADase [1]; bound together with nicotinamide): the reaction products, Nam and ADPR, were bound to a putative active site

NC(=O)c1ccc[n+]([C@@H]2O[C@H](COP(=O)(O)OP(=O)(O)OC[C@H]3O[C@@H](n4cnc5c(N)ncnc54)[C@H](OP(=O)(O)O)[C@@H]3O)[C@@H](O)[C@H]2O)c1 [NADP^+]
HPLC cleavage assay (NcNADase): Both AfNADase and NcNADase cleaved NAD^+ and NADP^+

NC(=O)c1cccnc1 [Nam]
X-ray structure, crystals soaked with NAD+ (AfNADase [1]; bound together with ADP-ribose): the reaction products, Nam and ADPR, were bound to a putative active site

AfNADase (Aspergillus fumigatus Af293)
Km [2]: 119.7 ± 40.8 µM | Km [3]: 106 ± 27.1 µM

NC(=O)c1ccc[n+]([C@@H]2O[C@H](COP(=O)(O)OP(=O)(O)OC[C@H]3O[C@@H](n4cnc5c(N)ncnc54)[C@H](O)[C@@H]3O)[C@@H](O)[C@H]2O)c1 [NAD^+]
HPLC cleavage assay (NcNADase): Both AfNADase and NcNADase cleaved NAD^+ and NADP^+

NC(=O)c1cccc([C@@H]2O[C@H](COP(=O)(O)OP(=O)(O)OC[C@H]3O[C@@H](n4cnc5c(N)ncnc54)[C@H](O)[C@@H]3O)[C@@H](O)[C@H]2O)c1 [BAD]
X-ray co-crystal structure (AfNADase [4]): We were able to co-crystallize AfNADase with BAD bound to the active site

B1: Aspergillus fumigatus NADase (AfNADase), recombinant, from Sf9 insect cells (enzyme)
chain: LQHTEDSLFPARCWPDPCAGITFQNDTYVCGDPRLGPVVLPQKFPLNNELRTYARFGALCPAEFLDKWATDVAPNGTYIYPPANGFALDTEEQPILGNATLPVGMKLDRFGSEYGTFLAPLGAPYIERSLPPSNLNTFDGMYPYNYHVYQVTKEFVVGLGPIAPWFEQPGMGTQFVTYTNVLGLIDDGYLRRLDESEYDEKVEYSNPYTPGPNQ
modifications: N-linked glycosylation at N45, N95 and N118; disulfide bridges C33-80 and C38-50
notes: also called A. fumigatus NADase; gene product AFUA_6G14470
stoichiometry N [5]: 2
